≈ marks a conversion by molar mass, not a printed value.
Experiments:
MRSA [1] = experiment: MIC analysis; type: cell-based; conditions: Staphylococcus aureus, 24 hours
Procedure: (§1) A clinical strain of MRSA, isolated from a patient who underwent arthroscopic knee surgery and characterized by ARUP Laboratories, Salt Lake City, Utah, was used for this study in addition to Pseudomonas aeruginosa ATCC 27853 and Alcanivorax borkumensis ATCC 700651. P. aeruginosa was resuspended in BHI broth, grown overnight at 37° C. and transferred to fresh BHI with 30% glycerol for storage at −80° C. The MRSA isolate was likewise stored in BHI with 30% glycerol at −80° C. […] Before performing MIC analysis and biofilm experiments, the frozen stocks of MRSA and P. aeruginosa were streaked onto Columbia blood agar plates and grown overnight at 37° C. A. borkumensis ATCC 700651 was resuspended from a lyophilized pellet into marine broth, grown overnight at 30° C. and passaged on marine agar plates prior to experimentation.
(§2) To determine the MIC of polyamine compounds, the protocol described herein was used.
(§3) In brief, a 0.5 McFarland of each bacterial isolate was made. A 0.5 McFarland is a measure of turbidity in a liquid sample that contains approximately 1×10^^8 CFU/mL. The 0.5 McFarland standard was diluted in cation adjusted Mueller Hinton Broth (CAMHB), and 50 μL of broth were added to a well of a 96-well plate. In addition, 50 μL of CAMHB that contained a desired concentration of antimicrobial were also added to the well for a final volume of 100 μL and a final concentration of approximately 5×10^4 CFU/well (which equated to approximately 5×10^5 CFU/mL). Each well contained a desired amount of polyamine compound in order to experimentally determine the MIC. Each 96-well plate was incubated at 37° C. for 24 hours. The contents of each well were plated on tryptic soy agar (TSA). TSA plates were incubated for 37° C. for 24 hours after which the number of CFU were counted and used to calculate the CFU/mL that remained after exposure to varying concentrations of compound. This procedure was repeated n=8 times for each concentration of antimicrobial.

P. aeruginosa [2] = experiment: MIC analysis; type: cell-based; conditions: Pseudomonas aeruginosa, 24 hours
Procedure: as §1, §2, §3

A. baumannii [3] = experiment: MIC analysis; type: cell-based; conditions: Acinetobacter baumannii, 24 hours
Procedure: as §2, §3

MRSA [4] = experiment: EBEC analysis, high number biofilms on PEEK membranes; type: cell-based, Staphylococcus aureus; conditions: 24 hours
Procedure: (§4) To determine the efficacy of polyamine compounds against high number biofilms, biofilms were grown on the surface of polyetheretherketone (PEEK) membranes using a membrane biofilm reactor. This reactor was similar to the CDC biofilm reactor, but rather than growing biofilms on coupon surfaces, the reactor was modified to hold PEEK membranes. In short, to grow biofilms within this system, 500 mL of brain heart infusion (BHI) broth were inoculated with 1 mL of a 0.5 McFarland. The reactor was placed on a hot plate set at 34° C. and the bacteria were grown under batch conditions for 24 hours.
(§5) A solution of 10% BHI was then flowed through the reactor at a rate of 6.94 mL/min for an additional 24 hours. PEEK membranes were then removed and placed into 2 mL of CAMHB that contained a desired concentration of polyamine compound or antibiotic. The EBEC was defined as the concentration of antimicrobial required to reduce a biofilm from approximately 10^9 CFU/PEEK membrane to approximately 10^2 CFU/PEEK membrane in a 24-hour period.

P. aeruginosa [5] = experiment: as above; type: cell-based, Pseudomonas aeruginosa; conditions: 24 hours
Procedure: as §4, §5

A. baumannii [6] = experiment: as above; type: cell-based, Acinetobacter baumannii; conditions: 24 hours
Procedure: as §4, §5

A. baumannii [7] = experiment: MBEC analysis, MBEC Inoculation Tray (column headed MBC); type: cell-based; conditions: Acinetobacter baumannii, 24 hours
Source text: (§6) To determine the MBEC of each polyamine compound, the MBEC Inoculation Tray by Innovotech, formerly known as the Calgary biofilm device, was used. Within this device, biofilms grow on the surface of polystyrene pegs, 96 of which are attached to a lid. These pegs are inserted into a flat bottom 96-well plate. In this instance, the MBEC of a molecule was defined as the concentration of compound (in μg/mL) required to reduce 10^5 or 10^6 CFU/peg (biofilm levels varied by isolate) to 10^2 CFU/peg in a 24-hour period.
(§7) Following the manufacturer's guidelines, biofilms were grown on the surface of each peg by first making a 0.5 McFarland of each isolate. The 0.5 McFarland was diluted 1:100 in CAMHB. Into each well of a flat bottom 96-well plate, 150 μL of broth were pipetted. The plate was shaken at 100 rpm for 24 hours (P. aeruginosa and A. baumannii) or 48 hours (MRSA). The pegs were then placed into a separate flat bottom 96-well plate for 10 seconds with 200 μL of phosphate buffered saline (PBS) in each well to remove nonadherent cells. The lid was then placed into a 96-well plate that contained varying concentrations of antimicrobial with 200 μL per well. The plate was incubated for 24 hours at 37° C. after which time 100 μL of broth were plated on TSA. TSA plates were incubated 24 hours at 37° C. and the number of CFU counted to calculate the CFU/peg. In this instance, the MBEC was defined as the concentration of antimicrobial required to reduce 10^5 or 10^6 CFU/peg to 10^2 CFU/peg in a 24 hour period.

MRSA [8] = experiment: as above; type: cell-based; conditions: Staphylococcus aureus, 24 hours
Source text: as §6, §7

P. aeruginosa [9] = experiment: as above; type: cell-based; conditions: Pseudomonas aeruginosa, 24 hours
Source text: as §6, §7

A. baumannii [10] = experiment: Wound healing study, porcine excision wound model (Example 3); type: in vivo, Acinetobacter baumannii; conditions: for CFU/g Tissue: necropsy at 28 days
Procedure: An IACUC-approved in vivo analysis utilized an excision wound model in swine. Up to 32 partial thickness wounds were created/animal using a 1 cm biopsy punch (FIG. 1A). Wounds were inoculated with ^˜1×10^8 colony forming units (CFU) of A. baumannii in the planktonic or biofilm phenotype. Well-established biofilms were grown on the surface of bio-absorbable collagen in a modified CDC biofilm reactor for 8 days (FIG. 1B). An n=8 wounds were used for each treatment group.
For the treatment groups, infection was allowed to establish in each wound for 5 days after which time treatment with an antimicrobial began. […] In a separate pig, wounds were inoculated as above and a combination of colistin/imipenem (2.5 mg/each) was administered IV for 14 days for comparison to the current clinical standard of care for A. baumannii. […] Swine were monitored for 28 days. Wound size was measured daily. Culture swabs were collected regularly. At the time of necropsy, a 5 mm biopsy punch was used to collect tissue and calculate CFU/g using standard microbiological procedure. ANOVA analysis was used to compare differences in data with alpha 0.05.

[11] = system: A. baumannii ATCC BAA 1605; experiment: MIC testing against the planktonic phenotype (Example 5); type: cell-based; conditions: Acinetobacter baumannii, BAA1605, 24 hr at 37° C.
Procedure: (§8) The isolate was maintained on Columbia blood agar and passaged as necessary with overnight incubation at 37° C.
Minimum inhibitory concentration (MIC) testing against the planktonic phenotype was performed first. To do so, a modified protocol of the Clinical and Laboratory Standards Institute (CLSI) guideline M100 was used. In short, using a fresh overnight culture of bacteria, a 0.5 McFarland standard was made in PBS using a nephelometer, then diluted to achieve a concentration of ˜7.5×10^5 CFU/mL. A 96-well plate was set up such that a final volume of 100 μL was present in each well. Column 1 served as the negative control of growth (antibiotic only without bacteria added) and Column 11 served as the positive control of growth (bacteria only, no antibiotic).
Into columns 2-11, 50 μL of CAMHB were added to each well. […] The solution was mixed, then 50 μL were removed and added to wells of column 3. This 1:2 dilution process was continued through column 10. Lastly, into each well of columns 2-11, 50 μL of the prepared bacterial solution were added. […] The 96-well plate was covered with adhesive film and incubated 24 hr at 37° C. The concentration of antibiotic that inhibited pellet formation or turbidity was considered the MIC.

[12] = system: A. baumannii ATCC BAA 1605 biofilms; experiment: Biofilm efficacy in CAMHB broth, CDC biofilm reactor (Example 5); type: cell-based, Acinetobacter baumannii; conditions: 24 hr
Procedure: as §8
Biofilms were grown on polycarbonate coupons in a CDC biofilm reactor following the manufacturer's recommendation. Once assembled and autoclaved, the reactor was inoculated. To do so, a fresh overnight culture of A. baumannii was used to make a 0.5 McFarland standard of the bacterial isolate (˜5×10^7 CFU/mL). One mL of the 0.5 McFarland solution was inoculated into 500 mL of BHI in the CDC biofilm reactor. The reactor was placed on a hot plate set at 34° C. and a baffle rotation of 130 rpm for 24 hr. After 24 hr batch growth, a continuous flow of 10% BHI was flowed through the reactor at ˜6.9 mL/min for an additional 168 hr (7 days).
A 100 μL aliquot of broth was removed and plated using a 10-fold dilution series in order to quantify the CFU/coupon that remained. Testing was performed with n=3 repeats per concentration. A baseline of growth was determined by quantifying n=3 coupons/reactor immediately following growth.

A. baumannii [13] = experiment: In vivo efficacy, porcine excision wound model (Example 6); design: species or system Acinetobacter baumannii; conditions: for Last Day that A. baumannii was Detected in At Least One Wound by Culture Swab / Log10 Transformed CFU/g Tissue at Necropsy (Day 28) / Last Day that A. baumannii was Detected in At Least One Wound: pig
Source text: Four Yorkeshire pigs with weight in the range of approximately 40-50 kg were quarantined for a minimum of 7 days. Positive reinforcement (Swedish Fish®, marshmallows, Snickers® bars, fruit and/or other treats) was provided once daily to help the pigs become accustom to having their back manipulated—e.g., a back scratch with a soft brush—by a research team member. A custom-fit jacket was also placed on pigs during the acclimation period to allow them to become aware of the covering that would be on their body.
The night before a surgical procedure was to be performed, pigs were fasted. To perform surgery, pigs were anesthetized initially with a combination of tiletamine-zolazepam (Telazol®; 4.4 mg/kg), Ketamine (2.2 mg/kg) and Xylazine (2.2 mg/kg). Pigs were intubated, given isoflurane inhalant at 0.5-5.0%, transported to a surgical suite, placed in sternal recumbency and clipped/razor-shaved of hair in the region where excision wounds would be created. Pigs were rotated to dorsal recumbency and the jugular vein area was sterilely prepped using alternating betadine/isopropyl alcohol. Once prepped, the site was sterilely draped and a VAP was implanted. To do so, a ventral midline incision was made to isolate the jugular vein. A catheter was placed in the vein and secured. A second incision was made on the dorsal side of the neck and a tunnel created along the subcutaneous space from the second incision to the jugular vein. The catheter was passed through the tunnel. A VAP was anchored subdermally in the dorsal neck space with non-absorbable suture (e.g., Proline). The catheter was connected to the VAP and secured in the jugular vein. Both incision sites were closed using absorbable suture (e.g., Vicryl).
With a VAP in place, a pig was rotated to sternal recumbency. The back was sterilely prepped for surgery, then draped. Using a 1 cm biopsy punch, excision wounds were created with a separation of approximately 2 cm between each wound. Wounds were organized into three or four sections with n=8 wounds/section (see FIG. 5). To reduce bleeding during wound creation, wound beds were treated with μL quantities of dilute epinephrine (1 mg/mL) as needed by the surgeon. Sterile saline-soaked gauze sponges were placed on excised wounds to maintain moisture as additional wounds were created. Once created, wounds were inoculated with bacteria (with the exception of negative control wounds) in either the planktonic or biofilm phenotype (see FIG. 5).
For wounds inoculated with planktonic bacteria, 2-3 colonies from a fresh overnight culture of A. baumannii were adjusted to a turbidity of 10% (˜1×10^9 CFU/mL) in sterile PBS using a nephelometer. One hundred L were pipetted into wound beds on the left flank of an animal (see FIG. 5).
Biofilm inoculation was performed by first growing biofilms on absorbable collagen for a total of 192 hrs (8 days) as described and transported to the OR in approved containers. Once the excision wounds were created, biofilm-containing collagen coupons were aseptically placed into wounds (one coupon/wound) on the right flank of an animal (see FIG. 1). […] Following inoculation, tincture of benzoin was applied to the border of each wound section to help maintain bandage adherence. Wounds were bandaged with a non-stick Telfa pad and Tegaderm. A custom jacket was also placed to further protect bandaging. Pigs were recovered and allowed to eat and drink ad libitum.
All wounds were reinoculated with planktonic or biofilm bacteria once daily for 3 days following the surgical procedure (total of 4 inoculations). […] To perform the reinoculations, planktonic bacteria were made fresh each day.

[14] = debrided wounds, biofilm phenotype
[15] = debrided wounds, planktonic phenotype
[16] = undebrided wounds, biofilm phenotype
[17] = undebrided wounds, planktonic phenotype

CC(C)CCNCCCNCCCNCc1cccc(-c2cc(-c3cccc(CNCCCNCCCNCCC(C)C)c3)cc(C(C)(C)C)c2)c1 [CZ-1-182, N^1,N^1′-((5′-(tert-butyl)-[1,1′:3′,1″-terphenyl]-3,3″-diyl)bis(methylene))bis(N^3-(3-(isopentylamino)propyl)propane-1,3-diamine)]
MIC (MRSA [1]): 0.25 µg/mL (≈ 0.351 µM)
MIC (P. aeruginosa [2]): 4 µg/mL (≈ 5.61 µM)
MIC (A. baumannii [3]): 32 µg/mL (≈ 44.9 µM)
EBEC (MRSA [4]): 100 µg/mL
EBEC (P. aeruginosa [5]): 150 µg/mL
EBEC (A. baumannii [6]): 300 µg/mL

CCC(CC)CNCCCNCCCNCc1ccc(-c2cc(-c3ccc(CNCCCNCCCNCC(CC)CC)cc3)cc(C(C)(C)C)c2)cc1 [CZ-1-179, N^1,N^1′-((5′-(tert-butyl)-[1,1′:3′,1″-terphenyl]-4,4″-diyl)bis(methylene))bis(N^3-(3-((2-ethylbutyl)amino)propyl)propane-1,3-diamine)]
MIC (MRSA [1]): 0.5 µg/mL (≈ 0.675 µM)
MIC (P. aeruginosa [2]): 4 µg/mL (≈ 5.4 µM)
MIC (A. baumannii [3]): 2 µg/mL (≈ 2.7 µM)
MBC (A. baumannii [7]): 4 µg/mL (≈ 5.4 µM)
MBC (MRSA [8]): 1 µg/mL (≈ 1.35 µM)
MBC (P. aeruginosa [9]): 4 µg/mL (≈ 5.4 µM)
EBEC (MRSA [4]): 250 µg/mL
EBEC (A. baumannii [6]): 500 µg/mL
CFU/g Tissue (A. baumannii [10]; swine wounds inoculated with biofilm bacteria): 0.00 CFU/g Tissue
CFU/g Tissue (A. baumannii [10]; swine wounds inoculated with planktonic bacteria): 0.00 CFU/g Tissue
speed of eradication of A. baumannii (A. baumannii [10]; swine wounds, topical): faster than SSD
MIC [11]: 2 µg/mL (≈ 2.7 µM)
CFU/coupon remaining ([12]; 0.00125% (12.5 μg/mL)): ~9.2×10^5 CFU/coupon
log10 reduction of biofilm ([12]; 0.00125% (12.5 μg/mL)): ~2 log10
CFU/coupon remaining ([12]; […] (25 μg/mL)): ~4.8×10^3 CFU/coupon
log10 reduction of biofilm ([12]; […] (25 μg/mL)): ~4 log10
eradication of biofilms ([12]; concentrations from 2% (20 mg/mL) down to 0.005% (50 μg/mL), polycarbonate coupons): full eradication of biofilms
Day after which A. baumannii was no longer detected by culture (A. baumannii [13]; Pig 2 (topical agents only)): 6 days
A. baumannii by culture on Day 6 (A. baumannii [13]; Pig 4 (IV+topical products)): none of the wounds
Day on which healing was obvious (A. baumannii [13]; Pig 4 (IV+topical products)): ≤ 8 days
Day on which signs of infection resolved (A. baumannii [13]; Pig 4 (IV+topical products)): ≤ 6 days
Day on which wound contraction was notable (A. baumannii [13]; Pig 4 (IV+topical products), biofilm wounds): ≤ 7 days
Day on which wound contraction was notable (A. baumannii [13]; Pig 4 (IV+topical products), planktonic wounds): ≤ 7 days
reduction of bioburden (A. baumannii [13]; Pig 4, in combination with IV antibiotics): reduced completely within two weeks
days sooner signs of infection cleared than the host alone (A. baumannii [13]; pig wounds): 3 to 4 days
Last Day that A. baumannii was Detected in At Least One Wound by Culture Swab (A. baumannii [13]; [14]): 5
Log10 Transformed CFU/g Tissue at Necropsy (Day 28) (A. baumannii [13]; [14]): 0
Last Day that A. baumannii was Detected in At Least One Wound by Culture Swab (A. baumannii [13]; [15]): 5
Log10 Transformed CFU/g Tissue at Necropsy (Day 28) (A. baumannii [13]; [15]): 0
Last Day that A. baumannii was Detected in At Least One Wound (A. baumannii [13]; [16]): 5
Log10 Transformed CFU/g Tissue at Necropsy (Day 28) (A. baumannii [13]; [16]): 0
Last Day that A. baumannii was Detected in At Least One Wound (A. baumannii [13]; [17]): 5
Log10 Transformed CFU/g Tissue at Necropsy (Day 28) (A. baumannii [13]; [17]): 0

From patent US11352315B2, “Compositions and methods comprising a triaryl polyamine” (Curza Global, LLC, priority 2017, dated 2022)
